Experimental data from PubChem BioAssay AID2060498 (Molecular Pharmacology Branch, DTP, NCI, 2025).

System: 171881-019-R-J1-PDC tumor spheroids, viability
Assay: Anticancer human tumor 171881-019-R-J1-PDC patient-derived invasive breast carcinoma cell line growth inhibition [GQUAD]
Details: spheroids with HUVEC and MSC; for IC50: curve of first compound; for viability, T/C: stronger effect = lower value
Method in brief: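 Multi-cell-type spheroids of tumor cells with HUVEC and mesenchymal stem cells, treated with drug combinations. Concentrations descend in half-log steps from near clinical Cmax, or from 10 microM where Cmax is unknown; viability read-out.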

[1] = second compound 0.0316 µM, first compound 0.0316 µM
[2] = second compound 0.0316 µM, first compound 0.1 µM
[3] = second compound 0.0316 µM, first compound 0.316 µM
[4] = second compound 0.0316 µM, first compound 1 µM
[5] = second compound 0.0316 µM, first compound 3.16 µM
[6] = second compound 0.0316 µM, first compound 10 µM
[7] = second compound 0.1 µM, first compound 0.0316 µM
[8] = second compound 0.1 µM, first compound 0.1 µM
[9] = second compound 0.1 µM, first compound 0.316 µM
[10] = second compound 0.1 µM, first compound 1 µM
[11] = second compound 0.1 µM, first compound 3.16 µM
[12] = second compound 0.1 µM, first compound 10 µM
[13] = second compound 0.316 µM, first compound 0.0316 µM
[14] = second compound 0.316 µM, first compound 0.1 µM
[15] = second compound 0.316 µM, first compound 0.316 µM
[16] = second compound 0.316 µM, first compound 1 µM
[17] = second compound 0.316 µM, first compound 3.16 µM
[18] = second compound 0.316 µM, first compound 10 µM
[19] = second compound 1 µM, first compound 0.0316 µM
[20] = second compound 1 µM, first compound 0.1 µM
[21] = second compound 1 µM, first compound 0.316 µM
[22] = second compound 1 µM, first compound 1 µM
[23] = second compound 1 µM, first compound 3.16 µM
[24] = second compound 1 µM, first compound 10 µM
[25] = second compound 3.16 µM, first compound 0.0316 µM
[26] = second compound 3.16 µM, first compound 0.1 µM
[27] = second compound 3.16 µM, first compound 0.316 µM
[28] = second compound 3.16 µM, first compound 1 µM
[29] = second compound 3.16 µM, first compound 3.16 µM
[30] = second compound 3.16 µM, first compound 10 µM
[31] = second compound 10 µM, first compound 0.0316 µM
[32] = second compound 10 µM, first compound 0.1 µM
[33] = second compound 10 µM, first compound 0.316 µM
[34] = second compound 10 µM, first compound 1 µM
[35] = second compound 10 µM, first compound 3.16 µM
[36] = second compound 10 µM, first compound 10 µM
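Further: spheroids exposed to compounds for 7 days.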
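Wherever viability, T/C is given: 100% = DMSO vehicle control viability.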

## COc1cc(C2c3cc4c(cc3C(OC3OC5COC(C)OC5C(O)C3O)C3COC(=O)C23)OCO4)cc(OC)c1O (centres undefined) + Cc1cnc(CNC(=O)c2c(=O)c3ccc(N4CCCN(C)CC4)nc3n3c2sc2ccccc23)cn1
Second compound 0.0316 µM
  IC50: 706 nM
Second compound 0.1 µM
  IC50: 907 nM
Second compound 0.316 µM
  IC50: 1060 nM
Second compound 1 µM
  IC50: 1270 nM
Second compound 3.16 µM
  IC50: 1360 nM
Second compound 10 µM
  IC50: 1400 nM
[1]
  viability, T/C: 94.5%
[2]
  viability, T/C: 79.3%
[3]
  viability, T/C: 63.4%
[4]
  viability, T/C: 42.5%
[5]
  viability, T/C: 31.4%
[6]
  viability, T/C: 17.4%
[7]
  viability, T/C: 83.7%
[8]
  viability, T/C: 75.2%
[9]
  viability, T/C: 60.5%
[10]
  viability, T/C: 52.3%
[11]
  viability, T/C: 30.6%
[12]
  viability, T/C: 16.7%
[13]
  viability, T/C: 69.9%
[14]
  viability, T/C: 74.2%
[15]
  viability, T/C: 59.9%
[16]
  viability, T/C: 49.5%
[17]
  viability, T/C: 36.7%
[18]
  viability, T/C: 18.1%
[19]
  viability, T/C: 65.4%
[20]
  viability, T/C: 61%
[21]
  viability, T/C: 59.1%
[22]
  viability, T/C: 53.3%
[23]
  viability, T/C: 39.9%
[24]
  viability, T/C: 19.3%
[25]
  viability, T/C: 60.3%
[26]
  viability, T/C: 60.2%
[27]
  viability, T/C: 60%
[28]
  viability, T/C: 53.3%
[29]
  viability, T/C: 39.7%
[30]
  viability, T/C: 20.9%
[31]
  viability, T/C: 58%
[32]
  viability, T/C: 57.7%
[33]
  viability, T/C: 52.9%
[34]
  viability, T/C: 55%
[35]
  viability, T/C: 39%
[36]
  viability, T/C: 21.1%

## C=CCn1c(=O)c2cnc(Nc3ccc(N4CCN(C)CC4)cc3)nc2n1-c1cccc(C(C)(C)O)n1 + CN(C)c1ccc(Nc2c3ccc(NC(=O)CCN4CCCC4)cc3nc3cc(NC(=O)CCN4CCCC4)ccc23)cc1
Second compound 0.0316 µM
  IC50: 783 nM
Second compound 0.1 µM
  IC50: 707 nM
Second compound 0.316 µM
  IC50: < 31.6 nM
Second compound 1 µM
  IC50: < 31.6 nM
Second compound 3.16 µM
  IC50: < 31.6 nM
Second compound 10 µM
  IC50: < 31.6 nM
[1]
  viability, T/C: 105%
[2]
  viability, T/C: 86.5%
[3]
  viability, T/C: 87.6%
[4]
  viability, T/C: 40%
[5]
  viability, T/C: 21.3%
[6]
  viability, T/C: 23.7%
[7]
  viability, T/C: 106%
[8]
  viability, T/C: 99%
[9]
  viability, T/C: 66.8%
[10]
  viability, T/C: 45.5%
[11]
  viability, T/C: 24.1%
[12]
  viability, T/C: 27.5%
[13]
  viability, T/C: 39.8%
[14]
  viability, T/C: 38.4%
[15]
  viability, T/C: 36.4%
[16]
  viability, T/C: 15.2%
[17]
  viability, T/C: 16.5%
[18]
  viability, T/C: 9.97%
[19]
  viability, T/C: 3.15%
[20]
  viability, T/C: 2.55%
[21]
  viability, T/C: 3.78%
[22]
  viability, T/C: 2.12%
[23]
  viability, T/C: 1.52%
[24]
  viability, T/C: 1.18%
[25]
  viability, T/C: 0.41%
[26]
  viability, T/C: 0.2%
[27]
  viability, T/C: 0.36%
[28]
  viability, T/C: 0.19%
[29]
  viability, T/C: 0.51%
[30]
  viability, T/C: 0.13%
[31]
  viability, T/C: 0.13%
[32]
  viability, T/C: 0.12%
[33]
  viability, T/C: 0.54%
[34]
  viability, T/C: 0.29%
[35]
  viability, T/C: 0.16%
[36]
  viability, T/C: 0.14%
